# In ChEMBL document CHEMBL3407459, “Synthesis and antimicrobial activity of novel structural hybrids of benzofuroxan and benzothiazole derivatives” (2015):
# Tests used:
# Escherichia coli [1] = test: Antibacterial activity against Escherichia coli MG1655 harboring pIbpA-lux assessed as maximum induction factor at 10^-5 M after 120 mins by luminometric analysis; type: functional, K-12 substr. MG1655
# Escherichia coli [2] = test: Antibacterial activity against Escherichia coli MG1655 harboring pXen7 assessed as toxicity index at 10^-8 M measured for 2 hrs by luminometric analysis; type: functional, K-12 substr. MG1655
# [3] = Activation of quorum sensing system luxR in Escherichia coli MG1655 harboring pVFR1-lux assessed as maximum induction factor at 10^-14 M after 120 mins by luminometric analysis; details: Escherichia coli str. K-12 substr. MG1655
# [4] = Activation of quorum sensing system luxR in Escherichia coli MG1655 harboring pVFR1-lux assessed as maximum induction factor at 10^-7 M after 120 mins by luminometric analysis; details: Escherichia coli str. K-12 substr. MG1655
# Escherichia coli [5] = test: Antibacterial activity against Escherichia coli MG1655 harboring pColD-lux assessed as maximum induction factor at 10^-4 M after 120 mins by luminometric analysis; type: functional, K-12 substr. MG1655
# Vibrio sp. [6] = test: Antibacterial activity against Vibrio aqamarinus VKPM B-11245 assessed as toxicity index at 10^-7 M measured for 2 hrs by luminometric analysis; type: functional
# Escherichia coli [7] = test: Antibacterial activity against Escherichia coli MG1655 harboring pSoxS-lux assessed as maximum induction factor at 10^-11 M after 120 mins by luminometric analysis; type: functional, K-12 substr. MG1655
# Escherichia coli [8] = test: Antibacterial activity against Escherichia coli MG1655 harboring pColD-lux assessed as maximum induction factor at 10^-9 M after 120 mins by luminometric analysis; type: functional, K-12 substr. MG1655
# [9] = Activation of quorum sensing system luxR in Escherichia coli MG1655 harboring pVFR1-lux assessed as maximum induction factor at 10^-12 M after 120 mins by luminometric analysis; details: Escherichia coli str. K-12 substr. MG1655
# Escherichia coli [10] = test: Antibacterial activity against Escherichia coli MG1655 harboring pKatG-lux assessed as maximum induction factor at 10^-4 M after 120 mins by luminometric analysis; type: functional, K-12 substr. MG1655
# Escherichia coli [11] = test: Antibacterial activity against Escherichia coli MG1655 harboring pKatG-lux assessed as maximum induction factor at 10^-9 M after 120 mins by luminometric analysis; type: functional, K-12 substr. MG1655
# Escherichia coli [12] = test: Antibacterial activity against Escherichia coli MG1655 harboring pRecA-lux assessed as maximum induction factor at 10^-11 M after 120 mins by luminometric analysis; type: functional, K-12 substr. MG1655
# [13] = Activation of quorum sensing system luxR in Escherichia coli MG1655 harboring pVFR1-lux assessed as maximum induction factor at 10^-13 M after 120 mins by luminometric analysis; details: Escherichia coli str. K-12 substr. MG1655
# Escherichia coli [14] = test: Antibacterial activity against Escherichia coli MG1655 harboring pXen7 assessed as toxicity index at 10^-4 M measured for 2 hrs by luminometric analysis; type: functional, K-12 substr. MG1655
# Escherichia coli [15] = test: Antibacterial activity against Escherichia coli MG1655 harboring pIbpA-lux assessed as maximum induction factor at 10^-12 M after 120 mins by luminometric analysis; type: functional, K-12 substr. MG1655
# Vibrio sp. [16] = test: Antibacterial activity against Vibrio aqamarinus VKPM B-11245 assessed as toxicity index at 10^-11 M measured for 2 hrs by luminometric analysis; type: functional
# [17] = Activation of quorum sensing system luxR in Escherichia coli MG1655 harboring pVFR1-lux assessed as maximum induction factor at 10^-10 M after 120 mins by luminometric analysis; details: Escherichia coli str. K-12 substr. MG1655
# Escherichia coli [18] = test: Antibacterial activity against Escherichia coli MG1655 harboring pKatG-lux assessed as maximum induction factor at 10^-10 M after 120 mins by luminometric analysis; type: functional, K-12 substr. MG1655
# Escherichia coli [19] = test: Antibacterial activity against Escherichia coli MG1655 harboring pXen7 assessed as toxicity index at 10^-6 M measured for 2 hrs by luminometric analysis; type: functional, K-12 substr. MG1655
# Escherichia coli [20] = test: Antibacterial activity against Escherichia coli MG1655 harboring pIbpA-lux assessed as maximum induction factor at 10^-4 M after 120 mins by luminometric analysis; type: functional, K-12 substr. MG1655
# Escherichia coli [21] = test: Antibacterial activity against Escherichia coli MG1655 harboring pXen7 assessed as toxicity index at 10^-7 M measured for 2 hrs by luminometric analysis; type: functional, K-12 substr. MG1655
# Escherichia coli [22] = test: Antibacterial activity against Escherichia coli MG1655 harboring pKatG-lux assessed as maximum induction factor at 10^-12 M after 120 mins by luminometric analysis; type: functional, K-12 substr. MG1655
# Escherichia coli [23] = test: Antibacterial activity against Escherichia coli MG1655 harboring pGrpE-lux assessed as maximum induction factor at 10^-6 M after 120 mins by luminometric analysis; type: functional, K-12 substr. MG1655
# Vibrio sp. [24] = test: Antibacterial activity against Vibrio aqamarinus VKPM B-11245 assessed as toxicity index at 10^-8 M measured for 2 hrs by luminometric analysis; type: functional
# Escherichia coli [25] = test: Antibacterial activity against Escherichia coli MG1655 harboring pIbpA-lux assessed as maximum induction factor at 10^-9 M after 120 mins by luminometric analysis; type: functional, K-12 substr. MG1655
# [26] = Activation of quorum sensing system luxR in Escherichia coli MG1655 harboring pVFR1-lux assessed as maximum induction factor at 10^-9 M after 120 mins by luminometric analysis; details: Escherichia coli str. K-12 substr. MG1655
# Escherichia coli [27] = test: Antibacterial activity against Escherichia coli MG1655 harboring pSoxS-lux assessed as maximum induction factor at 10^-4 M after 120 mins by luminometric analysis; type: functional, K-12 substr. MG1655
# Escherichia coli [28] = test: Antibacterial activity against Escherichia coli MG1655 harboring pXen7 assessed as toxicity index at 10^-14 M measured for 2 hrs by luminometric analysis; type: functional, K-12 substr. MG1655
compound,measurement,setting,value
O=[N+]([O-])c1cc([N+](=O)[O-])c2no[n+]([O-])c2c1Sc1nc2ccccc2s1,Activity,Escherichia coli [1],1.08
same,Activity,Escherichia coli [2],7.28
same,Activity,[3],2.87
same,Activity,[4],1.71
same,Activity,Escherichia coli [5],1.48
same,Activity,Vibrio sp. [6],22.52
same,Activity,Escherichia coli [7],0.99
same,Activity,Escherichia coli [8],1.05
same,Activity,[9],2.96
same,Activity,Escherichia coli [10],0.3
same,Activity,Escherichia coli [11],0.96
same,Activity,Escherichia coli [12],1.03
same,Activity,[13],1.77
same,Activity,Escherichia coli [14],98
same,Activity,Escherichia coli [15],1.25
same,Activity,Vibrio sp. [16],19.14
same,Activity,[17],3.59
same,Activity,Escherichia coli [18],1.02
same,Activity,Escherichia coli [19],10.3
same,Activity,Escherichia coli [20],0.63
same,Activity,Escherichia coli [21],0
same,Activity,Escherichia coli [22],1.12
same,Activity,Escherichia coli [23],1.15
same,Activity,Vibrio sp. [24],5.97
same,Activity,Escherichia coli [25],1.09
same,Activity,[26],1.74
same,Activity,Escherichia coli [27],2.71
same,Activity,Escherichia coli [28],2.74
